Values quoted from earlier work in patent US20230340373A1, “CLEANING WIPES” (Tygrus LLC, priority 2022, published 2023).

Conditions: 25 C; cited from earlier work

Q: For `C=CCc1ccc(O)c(OC)c1` [Eugenol], which pKa is on record?
A: 10.19
